Data on 52 sequences can be found in the supplement of paper PMC11208160.
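Further: IS621 bridge recombinase in Escherichia coli cells against a fixed T5 target plasmid.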

This series in a line: recombinant UMI read abundance after kanamycin selection (control-corrected) (log10(CPM+1)); higher = more efficient recombination; extreme values may be limits of the assay; sequences stand for … in AGTGCAGAGAAAATCGGCCAGTTTTCTCTGCCTGCAGTCCGCATGCCGTGGGACCCCTTGGGTTCTAACCTGTTGCCTAGATTTATGCAGCGGACTGCCTTTCTCCCAAAGTGATAAACCGG…AGGTTGGTTTCACT; site = the 11-nt donor. The method, boiled down: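 Two replicates each of selected and unselected plating were used in this pooled Escherichia coli screen of donor and donor-binding-loop pairs for the IS621 bridge recombinase. Selection was with IPTG (0.07 mM) and kanamycin. Counts of recombinant UMIs, amplified across the donor–target junction, were converted to CPM, averaged, scaled by control-derived factors and reported as log10(CPM+1).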
Turning to “TCGAAGTCATGGACCGGTTTTCCCGGTAATCCGTATTTGCG (site TCGAAGTCTCG)”, the “recombinant UMI read abundance (log10)” value was 1.9.
Take “TCGACGGCATGGACCGGTTTTCCCGGTAATCCGTATTTGAC (site TCGACGGCTGT)”: the “recombinant UMI read abundance (log10)” value was 0.0562.
The figure for “TCGACGGCATGGACCGGTTTTCCCGGTAATCCGTATTTGTG (site TCGACGGCTCA)” is 0.539.
The figure for “TCGATAGCATGGACCGGTTTTCCCGGTAATCCGTATTTGGG (site TCGATAGCTCC)” is 0.00329; for “TCGATGGCATGGACCGGTTTTCCCGGTAATCCGTATTTGCC (site TCGATGGCTGG)” it is 0; for “TCGATGTCATGGACCGGTTTTCCCGGTAATCCGTATTTGTA (site TCGATGTCTTA)” it is 1.41.
Regarding “TCGATGTCATGGACCGGTTTTCCCGGTAATCCGTATTTGTG (site TCGATGTCTCA)”, the “recombinant UMI read abundance (log10)” value came out at 0.868.
The figure for “TCGCAAACATGGACCGGTTTTCCCGGTAATCCGTATTTGCC (site TCGCAAACTGG)” is 0.
Next, “TCGCAACCATGGACCGGTTTTCCCGGTAATCCGTATTTGTT (site TCGCAACCTAA)”: 0.
Next, “TCGCATGCATGGACCGGTTTTCCCGGTAATCCGTATTTGGT (site TCGCATGCTAC)”: 0.656.
For “TCGCCAGCATGGACCGGTTTTCCCGGTAATCCGTATTTGTG (site TCGCCAGCTCA)”, the “recombinant UMI read abundance (log10)” value worked out at 0.0192.
Regarding “TCGCCATCATGGACCGGTTTTCCCGGTAATCCGTATTTGTT (site TCGCCATCTAA)”, the “recombinant UMI read abundance (log10)” value was determined as 0.0036.
As to “TCGCCTTCATGGACCGGTTTTCCCGGTAATCCGTATTTGGT (site TAGCCTTCTAC)”, the “recombinant UMI read abundance (log10)” value was 0.0118.
The figure for “TCGCCTTCATGGACCGGTTTTCCCGGTAATCCGTATTTGGT (site TCGCCTTCTAC)” is 0.00817; for “TCGCCTTCATGGACCGGTTTTCCCGGTAATCCGTATTTGGT (site TGGCCTTCTAC)” it is 0.00543.
Next, “TCGCCTTCATGGACCGGTTTTCCCGGTAATCCGTATTTGGT (site TTGCCTTCTAC)”: 0.00786; “TCGCGAACATGGACCGGTTTTCCCGGTAATCCGTATTTGTA (site TCGCGAACTTA)”: 1.18.
The figure for “TCGCTAGCATGGACCGGTTTTCCCGGTAATCCGTATTTGAA (site TAGCTAGCTTT)” is 0.00313.
Turning to “TCGCTAGCATGGACCGGTTTTCCCGGTAATCCGTATTTGAA (site TCGCTAGCTTT)”, the “recombinant UMI read abundance (log10)” value amounted to 0.00622.
“TCGCTAGCATGGACCGGTTTTCCCGGTAATCCGTATTTGAA (site TGGCTAGCTTT)”: the “recombinant UMI read abundance (log10)” value is 0.
Next, “TCGCTAGCATGGACCGGTTTTCCCGGTAATCCGTATTTGAA (site TTGCTAGCTTT)”: 0.0117; “TCGCTAGCATGGACCGGTTTTCCCGGTAATCCGTATTTGGC (site TCGCTAGCTGC)”: 0.
Next, “TCGCTGTCATGGACCGGTTTTCCCGGTAATCCGTATTTGGA (site TCGCTGTCTTC)”: 1.34; “TCGGAGACATGGACCGGTTTTCCCGGTAATCCGTATTTGAT (site TCGGAGACTAT)”: 1.93.
Next, “TCGGATACATGGACCGGTTTTCCCGGTAATCCGTATTTGCC (site TCGGATACTGG)”: 0.615; “TCGGATCCATGGACCGGTTTTCCCGGTAATCCGTATTTGTC (site TCGGATCCTGA)”: 0.795.
For “TCGGATGCATGGACCGGTTTTCCCGGTAATCCGTATTTGAG (site TCGGATGCTCT)”, the “recombinant UMI read abundance (log10)” value stood at 1.56.
Turning to “TCGGTATCATGGACCGGTTTTCCCGGTAATCCGTATTTGCA (site ACAGTATCTTG)”, the “recombinant UMI read abundance (log10)” value turned out to be 1.54.
The figure for “TCGGTATCATGGACCGGTTTTCCCGGTAATCCGTATTTGCA (site TCGGTATCTTG)” is 2.31; for “TCGTAGCCATGGACCGGTTTTCCCGGTAATCCGTATTTGTG (site TCGTAGCCTCA)” it is 0.0471.
Next, “TCGTATGCATGGACCGGTTTTCCCGGTAATCCGTATTTGAC (site TCGTATGCTGT)”: 0.101.
Consider “TCGTCACCATGGACCGGTTTTCCCGGTAATCCGTATTTGTG (site TCGTCACCTCA)”, for which the “recombinant UMI read abundance (log10)” value was determined as 0.0129.
“TCGTGACCATGGACCGGTTTTCCCGGTAATCCGTATTTGCA (site TCGTGACCTTG)”: the “recombinant UMI read abundance (log10)” value amounted to 0.
Next, “TCGTTCCCATGGACCGGTTTTCCCGGTAATCCGTATTTGAC (site TCGTTCCCTGT)”: 0.
The figure for “TCTAAAGCATGGACCGGTTTTCCCGGTAATCCGTATTTGAT (site ACTAAAGCTAT)” is 0.
Next, “TCTAAAGCATGGACCGGTTTTCCCGGTAATCCGTATTTGAT (site CCTAAAGCTAT)”: 0; “TCTAAAGCATGGACCGGTTTTCCCGGTAATCCGTATTTGAT (site GCTAAAGCTAT)”: 0.
For the sequence “TCTAAAGCATGGACCGGTTTTCCCGGTAATCCGTATTTGAT (site TCTAAAGCTAT)”, the “recombinant UMI read abundance (log10)” value amounted to 0.373.
The figure for “TCTAATTCATGGACCGGTTTTCCCGGTAATCCGTATTTGAA (site TCTAATTCTTT)” is 0; for “TCTAGACCATGGACCGGTTTTCCCGGTAATCCGTATTTGCC (site TCTAGACCTGG)” it is 0.
Next, “TCTATGCCATGGACCGGTTTTCCCGGTAATCCGTATTTGTT (site TCTATGCCTAA)”: 0.00238.
The figure for “TCTGATACATGGACCGGTTTTCCCGGTAATCCGTATTTGCT (site TCTGATACTAG)” is 0.
Take “TCTGCAACATGGACCGGTTTTCCCGGTAATCCGTATTTGAA (site TCTGCAACTTT)”: the “recombinant UMI read abundance (log10)” value was determined as 0.00363.
In the case of “TCTGCACCATGGACCGGTTTTCCCGGTAATCCGTATTTGGA (site TCTGCACCTTC)”, the “recombinant UMI read abundance (log10)” value was 0.0216.
Next, “TCTGCAGCATGGACCGGTTTTCCCGGTAATCCGTATTTGAA (site TCTGCAGCTTT)”: 0.00333.
In the case of “TCTGCTGCATGGACCGGTTTTCCCGGTAATCCGTATTTGGC (site TCTGCTGCTGC)”, the “recombinant UMI read abundance (log10)” value was determined as 0.
Take “TCTTACCCATGGACCGGTTTTCCCGGTAATCCGTATTTGGA (site TCTTACCCTTC)”: the “recombinant UMI read abundance (log10)” value came out at 0.0207.
The figure for “TCTTACTCATGGACCGGTTTTCCCGGTAATCCGTATTTGCA (site TCATACTCTTG)” is 0.465; for “TCTTACTCATGGACCGGTTTTCCCGGTAATCCGTATTTGCA (site TCCTACTCTTG)” it is 1.09.
On to “TCTTACTCATGGACCGGTTTTCCCGGTAATCCGTATTTGCA (site TCGTACTCTTG)”, for which the “recombinant UMI read abundance (log10)” value amounted to 0.946.
Next, “TCTTACTCATGGACCGGTTTTCCCGGTAATCCGTATTTGCA (site TCTTACTCTTG)”: 0.535; “TCTTATACATGGACCGGTTTTCCCGGTAATCCGTATTTGCT (site TCTTATACTAG)”: 0.00302.
